As a reminder, the IC50 is the concentration that inhibits the measured activity by half. A high value points to a need for much substance. What is called Ki is the equilibrium dissociation constant of an inhibitor or competing ligand from its target.

Structures are written as SMILES.

The record followed here is patent US20080312230A1, “Organic Compounds” (Novartis AG, priority 2005, published 2008).

One assay deals with T1, CRTh2 receptor (Homo sapiens, UniProt Q9Y5Y4).
T1 construct: expressed in transfected cells; host or cells: CHO.K1 (Chinese Hamster Ovary)
T1 sequence (Q9Y5Y4 1-395): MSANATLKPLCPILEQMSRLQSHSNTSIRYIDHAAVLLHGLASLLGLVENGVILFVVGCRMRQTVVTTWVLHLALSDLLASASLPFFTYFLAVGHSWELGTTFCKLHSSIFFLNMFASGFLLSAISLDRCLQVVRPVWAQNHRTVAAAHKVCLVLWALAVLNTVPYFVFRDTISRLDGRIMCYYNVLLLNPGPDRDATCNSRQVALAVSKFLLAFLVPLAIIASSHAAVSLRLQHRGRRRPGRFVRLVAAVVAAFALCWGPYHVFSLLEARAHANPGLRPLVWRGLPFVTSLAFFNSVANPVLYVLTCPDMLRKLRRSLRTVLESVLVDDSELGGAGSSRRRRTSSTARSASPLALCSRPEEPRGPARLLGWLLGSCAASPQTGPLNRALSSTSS
The experiment in a line: CRTH2 cAMP functional assay in CHO.K1-CRTh2 cells. The assay is classed as cell-based.
Details: not given
The procedure: The assay plate is incubated at room temperature on a shaker for 15 minutes.
A mix of agonist (10 nM Prostaglandin D2) and 5 μM forskolin is prepared in assay stimulation buffer and added to the assay plate (5 μL/well).
In addition, a cAMP standard is serially diluted in assay stimulation buffer and added to separate empty wells on the assay plate (20 μL/well).
The assay plate is incubated at room temperature on a shaker for 60 minutes.
The resulting lysis mix is added to all wells of the assay plate (40 μL/well).
The assay plate is sealed with Topseal-S™ and incubated in the dark at room temperature on a shaker for 45 minutes. The plate is then counted using a Packard Fusion™ instrument.
The resulting counts per minute are converted to nM cAMP by using the prepared cAMP standard curve.
Compound `Cc1c(CC(=O)O)c2cccnc2n1S(=O)(=O)c1ccc([N+](=O)[O-])cc1` [Example 3] displayed a half-maximal inhibitory concentration (IC50) of 276 nM.
Turning to `Cc1c(CC(=O)O)c2cccnc2n1C(C)c1ccc(Cl)cc1` (stereo not drawn) [Example 84, {1-[1-(4-Chloro-phenyl)-ethyl]-2-methyl-1H-pyrrolo[2,3-b]pyridin-3-yl}-acetic acid], the concentration for half-maximal inhibition (IC50) was found to be 84 nM.

The target in another assay is T1, CRTh2 receptor. The experiment in a line: Filtration binding assay: [3H]-PGD2 competition on CHO.K1-CRTh2 membranes. The note with it: competition with 2.5 nM [3H]-PGD2, CHO.K1-CRTh2 membranes, Cheng-Prussoff; read-out: Ki values in the SPA binding assay. Here is the method:
Filtration Binding Assay Protocol
The binding of CRTh2 antagonists is determined using membranes prepared from human CRTh2-expressing Chinese Hamster Ovary cells (CHO.K1-CRTh2). To produce cell membranes CHO.K1-CRTh2 cells cultured in roller bottles are harvested using cell dissociation buffer (Invitrogen). The cells are pelleted by centrifugation (167 g, 5 min). The cell pellet is incubated in hypotonic buffer (15 mM Tris-OH, 2 mM MgCl2, 0.3 mM EDTA, 1 mM EGTA, 1× Complete™ tablet) at 4° C. for 30 min. At 4° C. cells are homogenized using a Polytron® (IKA Ultra Turrax T25) for 5 bursts of 1 second. The homogenate is centrifuged (Beckman Optima TM TL Ultracentrifuge, 48000 g, 30 min at 4° C.). The supernatant is discarded and the membrane pellet resuspended in homogenisation buffer (75 mM Tris-OH, 12.5 mM MgCl2, 0.3 mM EDTA, 1 mM EGTA, 250 mM Sucrose, 1× Complete™ tablet. Membrane preparations are aliquoted and stored at […]. The protein content is estimated using Bradford Protein Assay Dye (Bio Rad).
The binding of [^3H]-PGD2 (157 Ci/mmol) to CHO.K1-CRTh2 membranes is determined in the absence (total binding) and presence (non-specific binding) of unlabelled PGD2 (1 μM). Subtraction of the cpm (counts per minute) of [^3H]-PGD2 binding in presence of excess unlabelled PGD2 from that observed in the absence of excess unlabelled PGD2 is defined as specific binding. Active CRTh2 antagonists are able to compete with [^3H]-PGD2 for binding to the CRTh2 receptor and are identified in a decrease in the number of cpm bound.
The assay is performed in Greiner U-bottomed 96 well-plates, in a final volume of 100 μl per well. CHO.K1-CRTh2 membranes were diluted in assay buffer (10 mM HEPES-KOH (pH 7.4), 1 mM EDTA and 10 mM MnCl2) and 10 μg are added to each well. [^3H]-PGD2 is diluted in assay buffer and added to each well at a final concentration of 2.5 nM. To determine non-specific binding, [^3H]-PGD2 binding to the CRTh2 receptor is competed with using unlabelled PGD2 at a final well concentration of 1 μM. The experiment is done in triplicate, with reagents added to the wells as follows:
25 μL assay buffer for total binding or
25 μL PGD2 to determine non-specific binding
25 μL test compound in DMSO/assay buffer
The plates are incubated at room temperature on a shaker for 1 hour, and then harvested (Tomtec Harvester 9600) onto GF/C filter plates using wash buffer (10 mM HEPES-KOH, pH 7.4). The plate is dried for 2 hours, prior to addition of Micro-Scint 20™ (50 μL) and sealing with TopSeal-S™. Plates are then counted using a Packard Top Count instrument, Plates are then read on the Packard Topcount with the 3H Scintillation program (1 min per well).
Ki (dissocation constant for the inhibition) values for the CRTh2 antagonists are reported. Ki values are determined using Sigma Plot™ software, using the Cheng-Prussoff equation.
Where S is the Concentration of Radioligand and Kd is the Dissociation Constant.
For `Cc1c(CC(=O)O)c2cccnc2n1C(C)c1ccc(S(C)(=O)=O)cc1` (single isomer, unassigned) [Example 97, {1-[1-(4-Methanesulfonyl-phenyl)-ethyl]-2-methyl-1H-pyrrolo[2,3-b]pyridin-3-yl}-acetic acid], the inhibition constant Ki amounted to 11 nM.
Turning to `Cc1c(CC(=O)O)c2cccnc2n1C(C)c1ccc(Cl)cc1` (stereo not drawn) [Example 84, {1-[1-(4-Chloro-phenyl)-ethyl]-2-methyl-1H-pyrrolo[2,3-b]pyridin-3-yl}-acetic acid], the Ki came out at 100 nM.
As for `Cc1c(CC(=O)O)c2cccnc2n1Cc1ccc(S(C)(=O)=O)cc1Cl` [Example 90, [1-(2-Chloro-4-methanesulfonyl-benzyl)-2-methyl-1H-pyrrolo[2,3-b]pyridin-3-yl]-acetic acid], the Ki was found to be 3 nM.
With `Cc1c(CC(=O)O)c2cccnc2n1Cc1ccc(S(C)(=O)=O)c(C(F)(F)F)c1` [Example 92, [1-(4-Methanesulfonyl-3-trifluoromethyl-benzyl)-2-methyl-1H-pyrrolo[2,3-b]pyridin-3-yl]-acetic acid], the Ki worked out at 22 nM.
On to `CCS(=O)(=O)c1ccc(Cn2c(C)c(CC(=O)O)c3cccnc32)c(C(F)(F)F)c1` [Example 93, [1-(4-Ethanesulfonyl-2-trifluoromethyl-benzyl)-2-methyl-1H-pyrrolo[2,3-b]pyridin-3-yl]-acetic acid], for which the Ki turned out to be 8 nM.
As to `CCS(=O)(=O)c1ccc(Cn2c(C)c(CC(=O)O)c3cccnc32)c(Cl)c1` [Example 94, [1-(2-Chloro-4-ethanesulfonyl-benzyl)-2-methyl-1H-pyrrolo[2,3-b]pyridin-3-yl]-acetic acid], the Ki worked out at 7 nM.
For the compound `Cc1c(CC(=O)O)c2cccnc2n1Cc1ccc(S(C)(=O)=O)cc1` [Example 96], the Ki was 29 nM.
As to `Cc1c(CC(=O)O)c2ccc(Cl)nc2n1Cc1ccc(S(C)(=O)=O)cc1` [Example 99, [6-Chloro-1-(4-methanesulfonyl-benzyl)-2-methyl-1H-pyrrolo[2,3-b]pyridin-3-yl]-acetic acid], the Ki was found to be 12 nM.
Take `Cc1c(CC(=O)O)c2ccc(Cl)nc2n1Cc1ccc(S(C)(=O)=O)cc1C(F)(F)F` [Example 100, [6-Chloro-1-(4-methanesulfonyl-2-trifluoromethyl-benzyl)-2-methyl-1H-pyrrolo[2,3-b]pyridin-3-yl]-acetic acid]: the inhibition constant (Ki) amounted to 5 nM.
The same measure, in the same setting: next, `COc1cc(S(=O)(=O)n2c(C)c(CC(=O)O)c3cccnc32)ccc1F` [Example 102, [1-(4-Fluoro-3-methoxy-benzenesulfonyl)-2-methyl-1H-pyrrolo[2,3-b]pyridin-3-yl]-acetic acid]: 56 nM.
`Cc1c(CC(=O)O)c2cccnc2n1S(=O)(=O)c1ccc(Cl)c(C#N)c1` [Example 103, [1-(4-Chloro-3-cyano-benzenesulfonyl)-2-methyl-1H-pyrrolo[2,3-b]pyridin-3-yl]-acetic acid]: the Ki was found to be 35 nM.
As to `Cc1c(CC(=O)O)c2cccnc2n1Cc1ccc(S(=O)(=O)C(C)C)cc1` [Example 105, {2-Methyl-1-[4-(propane-2-sulfonyl)-benzyl]-1H-pyrrolo[2,3-b]pyridin-3-yl}-acetic acid], the Ki is 98 nM.
For the compound `Cc1cc(S(C)(=O)=O)ccc1Cn1c(C)c(CC(=O)O)c2cccnc21` [Example 112, [1-(4-Methanesulfonyl-2-methyl-benzyl)-2-methyl-1H-pyrrolo[2,3-b]pyridin-3-yl]-acetic acid], the Ki was determined as 31 nM.
As to `Cc1c(CC(=O)O)c2cccnc2n1C(C)c1ccc(C(F)(F)F)cc1` (stereo not drawn) [Example 115, {2-Methyl-1-[1-(4-trifluoromethyl-phenyl)-ethyl]-1H-pyrrolo[2,3-b]pyridin-3-yl}-acetic acid], the Ki is 45 nM.
Take `Cc1c(CC(=O)O)c2cccnc2n1C(C)c1ccc(S(C)(=O)=O)cc1` (stereo not drawn) [Example 117, {1-[1-(4-Methanesulfonyl-phenyl)-ethyl]-2-methyl-1H-pyrrolo[2,3-b]pyridin-3-yl}-acetic acid]: the Ki was found to be 25 nM.
Still for that read-out and setting: next, `Cc1c(CC(=O)O)c2cccnc2n1Cc1ccc(C(F)(F)F)cc1C(F)(F)F` [Example 119, [1-(2,4-Bis-trifluoromethyl-benzyl)-2-methyl-1H-pyrrolo[2,3-b]pyridin-3-yl]-acetic acid]: 29 nM.
Regarding `Cc1c(CC(=O)O)c2cccnc2n1Cc1ccc([N+](=O)[O-])cc1` [Example 122, [2-Methyl-1-(4-nitro-benzyl)-1H-pyrrolo[2,3-b]pyridin-3-yl]-acetic acid], the Ki came out at 147 nM.
The same measure, in the same setting: the value for `Cc1c(CC(=O)O)c2cccnc2n1Cc1ccc(S(C)(=O)=O)c(Cl)c1` [Example 125, [1-(3-Chloro-4-methanesulfonyl-benzyl)-2-methyl-1H-pyrrolo[2,3-b]pyridin-3-yl]-acetic acid] was 27 nM; that for `CCOc1cc(S(=O)(=O)n2c(C)c(CC(=O)O)c3cccnc32)ccc1C#N` [Example 127, [1-(4-Cyano-3-ethoxy-benzenesulfonyl)-2-methyl-1H-pyrrolo[2,3-b]pyridin-3-yl]-acetic acid] was 43 nM; that for `COc1cc(S(=O)(=O)n2c(C)c(CC(=O)O)c3cccnc32)ccc1C#N` [Example 129, [1-(4-Cyano-3-methoxy-benzenesulfonyl)-2-methyl-1H-pyrrolo[2,3-b]pyridin-3-yl]-acetic acid] was 43 nM.
On the same count and under the same terms, the value for `CCCOc1cc(S(=O)(=O)n2c(C)c(CC(=O)O)c3cccnc32)ccc1C#N` [Example 130, [1-(4-Cyano-3-propoxy-benzenesulfonyl)-2-methyl-1H-pyrrolo[2,3-b]pyridin-3-yl]-acetic acid] was 50 nM; that for `COc1cc(S(=O)(=O)n2c(C)c(CC(=O)O)c3cccnc32)ccc1Cl` [Example 148, [1-(4-Chloro-3-methoxy-benzenesulfonyl)-2-methyl-1H-pyrrolo[2,3-b]pyridin-3-yl]-acetic acid] was 64 nM.
